We go through 14 molecules from article PMC4732513, “Efficient one-pot synthesis, molecular docking and in silico ADME prediction of bis-(4-hydroxycoumarin-3-yl) methane derivatives as antileishmanial agents” (EXCLI Journal, 2015).

Converted amounts (≈) assume the structure as drawn.

The subject of one test is L. donovani promastigotes (NHOM/IN/80/DD8). Kind of test: In vitro antileishmanial activity (modified MTT assay). It is filed as cell-based, Leishmania donovani. The conditions noted are these: Figure 3. As for the experimental part:
The assay for in vitro antileishmanial activity on culture of L. donovani promastigotes (NHOM/IN/80/DD8) was carried out in 96-well tissue culture plates. The promastigotes culture was maintained at 22 ^οC in modified RPMI 1640 pH 7.4 (without phenol red) with 10 % FCS medium. Drug dilutions were prepared in DMSO and appropriate concentration of each drug was used in triplicate. Plates were incubated at 22 °C for 72 h and evaluated using modified MTT assay, where the conversion of 3-(4,5-dimethylthiazol-2-yl)-2,5-diphenyltetrazolium bromide (MTT) to formazan by mitochondrial enzymes served as an indicator of cell viability and the amount of formazan produced was directly proportional to the number of metabolically active cells. Accordingly, absorbance at 492 nm represented the number of live cells. The concentration that decreased cell growth by 50 % (IC50) was determined by graphic interpolation. Pentamidine and sodium stibogluconate were used as standard drugs (Dutta et al., 2005[11]).
The assay for in vitro antileishmanial activity was carried out on cultures of L. donovani promastigotes. The concentration that decreased cell growth by 50 % (IC50) was determined by graphic interpolation and data obtained depicted in Table 3(Tab. 3).
A general note: Tetrazolium dyes change colour on reduction, which living cells bring about.
On to `CN(C)c1ccc(C(c2c(O)c3ccccc3oc2=O)c2c(O)c3ccccc3oc2=O)cc1` [3l, 3,3'-((4-(Dimethylamino)phenyl)methylene)bis(4-hydroxy-2H-chromen-2-one)], for which the “Effect on L. donovani promastigotes (viability, morphology)” value is “organisms lost its viability as seen by irregular shape morphology”.

Staying with this test, now noted: L. donovani promastigotes, 72 h at 22 °C, modified MTT, graphic interpolation.
On to `COc1ccc(C(c2c(O)c3ccccc3oc2=O)c2c(O)c3ccccc3oc2=O)c(OC)c1` [3g], for which the “IC50 (concentration that decreased cell growth by 50 %)” value is 157.5 µg/mL (≈ 333 µM).

On to `O.O.O.O.O.O.O.O.O.O=C([O-])[C@@H]1[O][Sb](=[O])([O][Sb]2(=[O])[O][C@H]([C@H](O)CO)[C@H](O)[C@H](C(=O)[O-])[O]2)[O][C@H]([C@H](O)CO)[C@@H]1O.[Na+].[Na+].[Na+]` (stereo partly drawn) [Sodium stibogluconate, sodium stibogluconate, reference compound], for which the “IC50 (concentration that decreased cell growth by 50 %)” value was 490 µg/mL.

The same test, now with this note: Leishmania donovani, 72 h, read-out: IC50 (concentration that decreased cell growth by 50 %).
For the molecule `O=c1oc2ccccc2c(O)c1C(c1ccccc1)c1c(O)c2ccccc2oc1=O` [3a, 3,3'-(Phenylmethylene)bis(4-hydroxy-2H-chromen-2-one)], the IC50 was 155 µg/mL (≈ 376 µM).

In the case of `O=c1oc2ccccc2c(O)c1C(c1ccc(Cl)cc1)c1c(O)c2ccccc2oc1=O` [3b, 3,3'-((4-Chlorophenyl)methylene)bis(4-hydroxy-2H-chromen-2-one)], the IC50 came to 312 µg/mL (≈ 699 µM).

Take `O=c1oc2ccccc2c(O)c1C(c1c(Cl)cccc1Cl)c1c(O)c2ccccc2oc1=O` [3c, 3,3'-((2,6-Dichlorophenyl)methylene)bis(4-hydroxy-2H-chromen-2-one)]: the IC50 was determined as 320 µg/mL (≈ 665 µM).

On to `O=c1oc2ccccc2c(O)c1C(c1ccc(F)cc1)c1c(O)c2ccccc2oc1=O` [3d, 3,3'-((4-Fluorophenyl)methylene)bis(4-hydroxy-2H-chromen-2-one)], for which the IC50 is 295 µg/mL (≈ 685 µM).

In the case of `COc1ccc(C(c2c(O)c3ccccc3oc2=O)c2c(O)c3ccccc3oc2=O)cc1` [3e, 3,3'-((4-Methoxyphenyl)methylene)bis(4-hydroxy-2H-chromen-2-one)], the IC50 worked out at 218 µg/mL (≈ 492 µM).

Regarding `COc1ccc(C(c2c(O)c3ccccc3oc2=O)c2c(O)c3ccccc3oc2=O)cc1OC` [3f, 3,3'-((3,4-Dimethoxyphenyl)methylene)-bis(4-hydroxy-2H-chromen-2-one)], the IC50 came out at 275 µg/mL (≈ 582 µM).

With `COc1ccc(OC)c(C(c2c(O)c3ccccc3oc2=O)c2c(O)c3ccccc3oc2=O)c1` [3h, 3,3'-((2,5-Dimethoxyphenyl)methylene)bis(4-hydroxy-2H-chromen-2-one)], the IC50 turned out to be 198 µg/mL (≈ 418 µM).

Regarding `COc1cc(C(c2c(O)c3ccccc3oc2=O)c2c(O)c3ccccc3oc2=O)cc(OC)c1OC` [3i, 3,3'-((3,4,5-Trimethoxyphenyl)methylene)bis(4-hydroxy-2H-chromen-2-one)], the IC50 turned out to be 262 µg/mL (≈ 522 µM).

Take `COc1cc(C(c2c(O)c3ccccc3oc2=O)c2c(O)c3ccccc3oc2=O)ccc1O` [3j, 3,3'-((4-Hydroxy-3-methoxyphenyl)methylene)bis(4-hydroxy-2H-chromen-2-one)]: the IC50 worked out at 198 µg/mL (≈ 431 µM).

Regarding `N#Cc1ccc(C(c2c(O)c3ccccc3oc2=O)c2c(O)c3ccccc3oc2=O)cc1` [3k, 3,3'-((4-Cyanophenyl)methylene)bis(4-hydroxy-2H-chromen-2-one)], the IC50 is 225 µg/mL (≈ 514 µM).

For the molecule `CN(C)c1ccc(C(c2c(O)c3ccccc3oc2=O)c2c(O)c3ccccc3oc2=O)cc1` [3l, 3,3'-((4-(Dimethylamino)phenyl)methylene)bis(4-hydroxy-2H-chromen-2-one)], the IC50 is 150 µg/mL (≈ 329 µM).

The test is the same for the next values; noted with them: Leishmania donovani; L. donovani promastigotes, 72 h at 22 °C, modified MTT, graphic interpolation; read-out: IC50 (concentration that decreased cell growth by 50 %).
In the case of `N=C(N)c1ccc(OCCCCCOc2ccc(C(=N)N)cc2)cc1` [Pentamidine, pentamidine, reference compound], the IC50 amounted to 5.5 µg/mL (≈ 16.2 µM).
